Reference: patent US20250339409A1, “USES OF PAN BET INHIBITORS” (VYNE THERAPEUTICS INC., priority 2021, published 2025)
Values joined by “and” are separate entries in the source; they are usually repeats but may differ in a detail not shown here. Equal values may be shown once.

System: anti collagen antibodies induced arthritis (ACAIA)
Assay: Anti collagen antibodies induced arthritis (ACAIA) in mice, intra-articular treatment: paw thickness, arthritis clinical score, body weight;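 further: mouse arthritis induced by IV anti-collagen mAb on day 0 plus IP LPS on day 4, with body weight, caliper paw thickness and 0-4 paw score tracked against a day 0 baseline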
Details: for Average clinical score per day (untreated): untreated leg
[1] = BETi1 0.1 mg/kg IA (Group 4), Av
[2] = BETi1 0.1 mg/kg IA (Group 4), individual animals, 0.1 mg/kg
[3] = BETi1 1 mg/kg IA (Group 3), individual animals, 1 mg/kg
[4] = BETi1 10 mg/kg IA (Group 2), Av
[5] = BETi1 10 mg/kg IA (Group 2), individual animals, 10 mg/kg

Cn1cc(-c2cccc(O)c2Oc2ccccc2)c2cc[nH]c2c1=O [BETi1]
Weight per day, Day 5 [1]: 18.6 g | Weight per day, Day 6 [1]: 18.1 g | Weight per day, Day 7 [1]: 18.1 g | Weight per day, Day 8 [1]: 17.9 g | Weight per day, Day 10 [1]: 18.1 g | Weight per day, Day 12 [1]: 19.1 g | Weight per day, Baseline [2]: 20.2 g and 21 g and 19.7 g and 21.9 g and 20.3 g and 21.5 g and 18.5 g | Weight per day, Day 3 [2]: 20 g and 21.2 g (2×) and 20.3 g and 22.4 g and 20.6 g and 18.8 g | Weight per day, Day 4 [2]: 20 g and 21.3 g and 18 g and 21.9 g and 20.4 g and 21.4 g and 19.1 g | Weight per day, Day 5 [2]: 18.1 g and 19 g and 16.6 g and 20.5 g and 19.4 g (2×) and 17.4 g | Weight per day, Day 6 [2]: 17.3 g and 18.7 g and 16.5 g and 19.7 g and 18.5 g and 18.9 g and 17.2 g | Weight per day, Day 7 [2]: 17.8 g and 18.8 g (2×) and 16.8 g and 19.5 g and 18.2 g and 16.7 g | Weight per day, Day 8 [2]: 17.5 g and 18.4 g (3×) and 16.7 g and 19.5 g and 16.6 g | Weight per day, Day 10 [2]: 18.2 g and 19 g and 16.8 g (2×) and 19.4 g and 17.7 g and 19.1 g | Weight per day, Day 12 [2]: 18.8 g and 19.9 g and 17.5 g and 20.7 g and 18.7 g and 20.2 g and 18 g | Weight per day, Baseline (BETi1 1 mg/kg IA (Group 3), Av): 20.7 g | Weight per day, Day 3 (BETi1 1 mg/kg IA (Group 3), Av): 20.7 g | Weight per day, Day 4 (BETi1 1 mg/kg IA (Group 3), Av): 21 g | Weight per day, Day 5 (BETi1 1 mg/kg IA (Group 3), Av): 19 g | Weight per day, Day 6 (BETi1 1 mg/kg IA (Group 3), Av): 18.5 g | Weight per day, Day 7 (BETi1 1 mg/kg IA (Group 3), Av): 18.6 g | Weight per day, Day 8 (BETi1 1 mg/kg IA (Group 3), Av): 18.9 g | Weight per day, Day 10 (BETi1 1 mg/kg IA (Group 3), Av): 19.3 g | Weight per day, Day 12 (BETi1 1 mg/kg IA (Group 3), Av): 20.1 g | Weight per day, Baseline [3]: 20.4 g and 22.5 g and 20.3 g and 19.9 g and 21.5 g and 19.7 g and 20.6 g | Weight per day, Day 3 [3]: 20.6 g and 22.1 g and 20.8 g and 19.6 g and 21 g and 19.8 g and 20.9 g | Weight per day, Day 4 [3]: 20.8 g and 22.5 g and 21.1 g and 19.9 g (2×) and 21.7 g and 21 g | Weight per day, Day 5 [3]: 19.1 g and 20.2 g and 19.2 g (2×) and 17.7 g and 17.9 g and 19.5 g | Weight per day, Day 6 [3]: 18.7 g and 18.6 g and 18.8 g (2×) and 18 g and 19.3 g and 17.2 g | Weight per day, Day 7 [3]: 18.3 g and 18.9 g (2×) and 17.8 g and 19.4 g and 17.7 g and 19.2 g | Weight per day, Day 8 [3]: 18.5 g and 19.8 g and 18.8 g and 17.9 g and 19.3 g and 18.2 g and 19.6 g | Weight per day, Day 10 [3]: 18.8 g and 21.3 g and 19 g and 18.6 g and 19.3 g and 18.7 g and 19.2 g | Weight per day, Day 12 [3]: 19.4 g (2×) and 22.5 g and 19.9 g and 19.3 g and 20.1 g (2×) | Weight per day, Baseline [4]: 21.3 g | Weight per day, Day 3 [4]: 21.4 g | Weight per day, Day 4 [4]: 21.5 g | Weight per day, Day 5 [4]: 19.6 g | Weight per day, Day 6 [4]: 19.6 g | Weight per day, Day 7 [4]: 19.5 g | Weight per day, Day 8 [4]: 19.2 g | Weight per day, Day 10 [4]: 19.4 g | Weight per day, Day 12 [4]: 20.2 g | Weight per day, Baseline [5]: 20.2 g and 21.6 g and 20.8 g and 21.7 g and 21.4 g and 22.2 g and 21.3 g | Weight per day, Day 3 [5]: 20.1 g and 21.5 g (2×) and 21.3 g (2×) and 22 g and 21.8 g | Weight per day, Day 4 [5]: 20.2 g and 21.4 g (2×) and 22.4 g and 21.6 g and 21.9 g and 21.7 g | Weight per day, Day 5 [5]: 18.5 g and 20.1 g and 19.3 g and 20.3 g and 19.9 g and 19.4 g | Weight per day, Day 6 [5]: 18.9 g and 19.8 g and 19.2 g and 19.5 g (2×) and 20.4 g | Weight per day, Day 7 [5]: 18.7 g and 19.4 g and 19.5 g and 19.6 g (2×) and 20.3 g | Weight per day, Day 8 [5]: 18.6 g and 19.2 g and 19.6 g and 18.8 g and 20.2 g and 19.1 g | Weight per day, Day 10 [5]: 18.3 g and 19.2 g and 19.8 g and 19.6 g and 20.5 g and 19.3 g | Weight per day, Day 12 [5]: 19.3 g and 20.3 g and 20.4 g and 19.9 g and 21.1 g and 20 g | Average clinical score per day (untreated) (0.01 mg/kg IA (Group 5), Baseline): 0.00 points | Average clinical score per day (untreated) (0.01 mg/kg IA (Group 5), Day 3): 0.00 points | Average clinical score per day (untreated) (0.01 mg/kg IA (Group 5), Day 4): 0.00 points | Average clinical score per day (untreated) (0.01 mg/kg IA (Group 5), Day 5): 0.00 points | Average clinical score per day (untreated) (0.01 mg/kg IA (Group 5), Day 6): 0.86 points | Average clinical score per day (untreated) (0.01 mg/kg IA (Group 5), Day 7): 1.57 points | Average clinical score per day (untreated) (0.01 mg/kg IA (Group 5), Day 8): 1.71 points | Average clinical score per day (untreated) (0.01 mg/kg IA (Group 5), Day 10): 2.14 points | Average clinical score per day (untreated) (0.01 mg/kg IA (Group 5), Day 12): 1.43 points | Average clinical score per day (untreated) (0.1 mg/kg IA (Group 4), Baseline): 0.00 points | Average clinical score per day (untreated) (0.1 mg/kg IA (Group 4), Day 3): 0.00 points | Average clinical score per day (untreated) (0.1 mg/kg IA (Group 4), Day 4): 0.00 points | Average clinical score per day (untreated) (0.1 mg/kg IA (Group 4), Day 5): 0.00 points | Average clinical score per day (untreated) (0.1 mg/kg IA (Group 4), Day 6): 1.14 points | Average clinical score per day (untreated) (0.1 mg/kg IA (Group 4), Day 7): 2.00 points | Average clinical score per day (untreated) (0.1 mg/kg IA (Group 4), Day 8): 2.29 points | Average clinical score per day (untreated) (0.1 mg/kg IA (Group 4), Day 10): 2.57 points | Average clinical score per day (untreated) (0.1 mg/kg IA (Group 4), Day 12): 3.00 points | Average clinical score per day (untreated) (1 mg/kg IA (Group 3), Baseline): 0.00 points | Average clinical score per day (untreated) (1 mg/kg IA (Group 3), Day 3): 0.00 points | Average clinical score per day (untreated) (1 mg/kg IA (Group 3), Day 4): 0.00 points | Average clinical score per day (untreated) (1 mg/kg IA (Group 3), Day 5): 0.00 points | Average clinical score per day (untreated) (1 mg/kg IA (Group 3), Day 6): 0.71 points | Average clinical score per day (untreated) (1 mg/kg IA (Group 3), Day 7): 1.43 points | Average clinical score per day (untreated) (1 mg/kg IA (Group 3), Day 8): 2.43 points | Average clinical score per day (untreated) (1 mg/kg IA (Group 3), Day 10): 2.00 points | Average clinical score per day (untreated) (1 mg/kg IA (Group 3), Day 12): 2.43 points | Average clinical score per day (untreated) (10 mg/kg IA (Group 2), Baseline): 0.00 points | Average clinical score per day (untreated) (10 mg/kg IA (Group 2), Day 3): 0.00 points | Average clinical score per day (untreated) (10 mg/kg IA (Group 2), Day 4): 0.00 points | Average clinical score per day (untreated) (10 mg/kg IA (Group 2), Day 5): 0.00 points | Average clinical score per day (untreated) (10 mg/kg IA (Group 2), Day 6): 0.83 points | Average clinical score per day (untreated) (10 mg/kg IA (Group 2), Day 7): 1.83 points | Average clinical score per day (untreated) (10 mg/kg IA (Group 2), Day 8): 3.00 points | Average clinical score per day (untreated) (10 mg/kg IA (Group 2), Day 10): 3.00 points | Average clinical score per day (untreated) (10 mg/kg IA (Group 2), Day 12): 3.33 points
